From US8088567B2, “Human immortalised neural precursor cell line” (NsGene A/S, priority 2005, dated 2012)
Entries after “also recorded” stand apart in the source; their conditions may differ.

Assays:
[1] = tested on: NGC-407 & U343MGa-cl 2:6 cells; test: Gap junction communication by calcein dye transfer, NGC-407 to U343MGa-cl 2:6; type: cell-based, human; conditions: PB 0.5 mM donor, 4 mM recipient for 72 hours, 4 hours co-culture at 0.5 mM
Method: Donor human embryonic neural stem cells (NGC-407) and recipient human glioblastoma cells (U343MGa-cl 2:6) were grown each in 2 separate 35 mm Petri dishes (1×10^5/dish). For NGC-407 cells the plates were poly-L-lysine (Sigma) coated and the medium was DMEM/F12 1:1 with glutamax I (Invitrogen) containing 40 ng/ml bFGF2 (R&D Systems), 20 ng/ml rhEGF, 1× N2 supplement, 1× non-essential amino acid, 5 mM HEPES buffer solution (from Invitrogen), 0.5% human serum albumin and 6 g/L D-glucose (from Sigma). The recipient cells were grown in DMEM containing 10% FBS, 100 units/ml penicillin and 100 μg/ml streptomycin (from Invitrogen). When the cells were approx. 60% confluent, treatment with 0 & 0.5 mM 4-Phenyl Butyrate (PB) for donor cells and 0 & 4 mM PB for recipient cells was started and continued for 72 hours. The donor cells were then double labelled by incubating with 1 ml of cell medium containing 10 μM Dil and 5 μM Calcein-AM (Molecular Probes) for 20 min. After aspiration of the dye containing medium the cells were washed 4-5 times with pure medium and then with PBS to get rid of free dye. After a very brief trypsinization the cells were centrifuged and resuspended in co-culture medium (donor cell medium including 0.5% FBS). The medium of recipient cells was replaced by co-culture medium and 5×10^4 donor cells were added to one recipient plate. […]

NGC-407 cells = test: Gap junction communication by fluorescent dye transfer between NGC-407 cells; type: cell-based, human; conditions: differentiating and proliferating conditions
Method: (§1) This was analyzed semi-quantitatively/qualitatively by using fluorescent dye transfer techniques. It is evident that the GJC is enhanced by 4-PB both under differentiating and proliferating conditions in vitro. This is relevant since the in vivo environment may present transplanted cells with conditions that stimulate neither differentiation nor proliferation.

[2] = tested on: NGC-407 cells and U87 gioblastoma cells; test: Gap junction communication by fluorescent dye transfer, NGC-407 and U87; type: cell-based, human; conditions: differentiating and proliferating conditions
Method: as §1

U87MG xenograft tumor = test: In vivo migration of GFP-expressing NGC-407 cells in nude rat model of human glioblastoma multiforme; parameters: species or system nude rats; conditions: PB 250 mg/kg intraperitoneally twice daily, 2 weeks
Method: 8-9 weeks old athymic nude male rats (rnu/rnu; Harlan, Germany) with an average weight of 200 g were used in our human glioblastoma multiforme xenograft model. They were housed in a group of 3 in standardized big cages in 50-70% relative humidity and 20°-24° C. temperature with 12/12 day/night variation. Food (Ad libitum), water and other materials used for these immunocompromised animals were autoclaved before use. Animals were anesthesitized by isoflurane inhalation and the head was fixed in a stereo tactic apparatus. Under microscopic guidance a burr hole of 1 mm diameter was made over the right hemisphere, 2 mm right lateral to the bregma. Using a Hamilton syringe of 5 μl volume 1.5×10^5 U87MG cells in 3 μl volume were slowly injected through the burr hole at a depth of 3.5 mm from the surface to reach the corpus callosum.
2×10^6 neural progenitors (NGC-407) recombinantly expressing green fluorescent protein (GFP), were plated in a 100 mm Petri dish and were grown as neurospheres for 48 hours. […]
Histopathological analysis of the sections was carried out by haematoxylin and eosin staining to determine the size and location of the implants. […] Immunohistochemically the tumor location was determined by correlating with the histological analysis and by the cell density while the sections were counter-stained with hoechst.

NGC-407 wt cells = test: Cell killing effect of AZT, XTT viability assay, parental cells; type: cell-based, human; conditions: parental NGC-407 cell line, 120 hours drug exposure
Method: Cell culture The human neuronal progenitor cell line NGC-407 was cultured in DMEM/F12 (Gibco #31331-028) conditioned with Human Serum Albunim (HSA) (Sigma #A 1653), N2 (Gibco #17502-048), B27 (Gibco #17504-044), Glucose (Sigma #G8769), bFGF (R&D Systems #233-FB), EGF (R& Systems #236-EG), MEM NEAA, x100 (Gibco #11140-035), HEPES (Gibco #15630-056), in poly-L-lysine (Sigma #P4832) coated flasks/Plates (CM-Lab, Denmark). Cells were grown at 37° C. and 5% CO2 in a humidified incubator.
(§2) Exponentially growing NGC-407 wt and tomato kinase (ZG561) expressing cells were plated at a density of 5.000 cells/well in poly-L-lysine coated 96-well plates in 100 μl conditioned medium and incubated 37° C. in a humidified incubator with a gas phase of 5% CO2. After 48 hours, medium was replaced with medium containing varying concentrations of AZT starting at 20 mM and down. […] The chemo resistance of cultured cells was monitored by the surviving cell fraction as a function of the drug concentration. Viability of cells was determined via the colorimetric XTT assay (XTT kit II-Roche, cat no. 1465015). […] The absorbance at 450 and 690 nm was determined using an ELISA plate reader (Ascent, ThermoLab). The IC50 value (50% inhibition concentration) of the investigated compound was calculated as the mean value of each experiment using SigmaPlot® (Dyrberg Trading, DK).

[3] = tested on: tomato kinase (ZG561) expressing NGC-407 cells; test: Cell killing effect of AZT, XTT viability assay, tomato kinase expressing cells; type: cell-based, human
Method: The constructed pLHCXZ (Clontech) plasmid vector pZG561 (coding for a Tomato Thymidine kinase I with a C-terminal deletion of 26 amino acids, WO 03/100045) and pVPack-GP (Stratagene) plus pVPack-VSV-G (Stratagene) were transfected into the packaging cells using LipofectAMINE PLUS (Invitrogen-Life Technologies, Inc.) according to the protocol provided by the supplier. The medium from the transfected cells, cultured in DMEM (Invitrogen), was collected 48 and 72 hours post transfection, filtered through a 0.45 μm filter, pelleted by ultracentrifugation (50.000g, 90 min at 4° C.) and dissolved in DMEM (Invitrogen). The titer of the virus was determined by reverse transcriptase assay. […]
The day before transduction, 1×10^6 cells/well were seeded in 6-well plates. […] Subsequently cells were ready for experiments.
as §2, with “CO2.” for “CO2. After 48 hours, medium was replaced with medium containing varying concentrations of AZT starting at 20 mM and down.”, “The IC50 value (50% inhibition concentration) of the investigated compound was calculated as the mean value of each experiment using SigmaPlot® (Dyrberg Trading, DK).” left out

transfected cell line = conditions: cited from earlier work

## O=C(O)CCCc1ccccc1 [4-PB, 4-Phenyl Butyrate]
[1]
  gap junction communication NGC-407 to U343MGa-cl 2:6 (calcein transfer): significantly enhanced
[1]; listed as PB
  gap junction communication NGC-407 to U343MGa-cl 2:6 (calcein transfer): number of green recipient cells has also been significantly increased
NGC-407 cells
  gap junction communication (GJC) between NGC-407 cells: enhances the gap junction communication
[2]
  gap junction communication (GJC) between NGC-407 cells and U87 gioblastoma cells: enhances the gap junction communication
U87MG xenograft tumor
  GFP staining / GFP positive cells around and inside the tumor: enhanced the GFP staining; also recorded: increases the number of GFP positive cells

## Cc1cn([C@H]2C[C@H](N=[N+]=[N-])[C@@H](CO)O2)c(=O)[nH]c1=O [AZT]
NGC-407 wt cells
  IC50: 11.8 mM
[3]; Hygromycin selected ZG561 (tomato TK) NGC-407 cells, 120 hours drug exposure, XTT
  IC50: 51.1 µM
[3]; ZG561 cells versus parental cells
  Sensitisation of NGC-407 cells towards AZT by Tomato Thymidine kinase: 230 fold

B1: B5: mutant Drosophila melanogaster deoxyribonucleoside kinase variant, SEQ ID NO 5 (protein)
chain: MAEAASCARKGTKYAEGTQPFTVLIEGNIGSGKTTYLNHFEKYKNDICLLTEPVEKWRNVNGVNLLELMYKDPKKWAMPFQSYATLTMLQSHTAPTNKKLKIMERSIFSARYCFVENMRRNGSLEQGMYNTLEEWYKFIEESIHVQADLIIYLRTSPEVAYERIRQRARSEESCVPLKYLQELHELHEDWLIHQRRPQSCKVLVLDADLDLENIGTEYQRSESSIFDAISSNQQPSPVPVSPSKRQRVAR
modifications: Drosophila melanogaster
Transfected cell line
  degree of activation for gemcitabine relative to wild type Dm dNK: approximately 50 times
